Assay results: PubChem BioAssay AID248 (DTP/NCI, 2004)
Inconclusive results and toxic doses are left out. Cut-off read from the data, not from the text of the source: active = T/C of 150% or more; inactive = T/C below 125%.

Tested on: L1210 leukemia ip in BDF1 mice, survival T/C
Test: NCI In Vivo Anticancer Drug Screen. Data for tumor model L1210 Leukemia (intraperitoneal) in B6D2F1 (BDF1) mice
Settings: endpoint: mean survival time, higher = longer survival
In short: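 Survival endpoint. Drug-treated group vs vehicle group, expressed as T divided by C. Tumor passaged by transplantation.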

[1] = dose: 25.0 mg/kg/injection, schedule: Q01DX009 (ip), vehicle: saline with Tween-80
[2] = dose: 100.0 mg/kg/injection, schedule: Q01DX001 (ip), vehicle: carboxymethylcellulose (CMC)
[3] = dose: 200.0 mg/kg/injection, schedule: Q01DX001 (ip), vehicle: carboxymethylcellulose (CMC)
[4] = dose: 400.0 mg/kg/injection, schedule: Q01DX001 (ip), vehicle: carboxymethylcellulose (CMC)
[5] = dose: 100.0 mg/kg/injection, schedule: Q01DX001 (ip), vehicle: Klucel (hydroxypropylcellulose) (HPC)
[6] = dose: 200.0 mg/kg/injection, schedule: Q01DX001 (ip), vehicle: Klucel (hydroxypropylcellulose) (HPC)
[7] = dose: 50.0 mg/kg/injection, schedule: Q01DX009 (ip), vehicle: saline with Tween-80
[8] = dose: 100.0 mg/kg/injection, schedule: Q01DX001 (ip), vehicle: saline
[9] = dose: 100.0 mg/kg/injection, schedule: Q01DX009 (ip), vehicle: saline with Tween-80
[10] = dose: 100.0 mg/kg/injection, schedule: Q04DX003 (ip), vehicle: saline
[11] = dose: 200.0 mg/kg/injection, schedule: Q01DX001 (ip), vehicle: saline
[12] = dose: 200.0 mg/kg/injection, schedule: Q01DX009 (ip), vehicle: saline with Tween-80
[13] = dose: 400.0 mg/kg/injection, schedule: Q01DX009 (ip), vehicle: saline with Tween-80
[14] = dose: 100.0 mg/kg/injection, schedule: Q04DX003 (ip), vehicle: saline with Tween-80
[15] = dose: 200.0 mg/kg/injection, schedule: Q04DX003 (ip), vehicle: saline with Tween-80
[16] = dose: 400.0 mg/kg/injection, schedule: Q04DX003 (ip), vehicle: saline with Tween-80
[17] = dose: 50.0 mg/kg/injection, schedule: Q01DX009 (ip), vehicle: acetone
[18] = dose: 100.0 mg/kg/injection, schedule: Q01DX009 (ip), vehicle: acetone
[19] = dose: 25.0 mg/kg/injection, schedule: Q01DX001 (ip), vehicle: saline
[20] = dose: 50.0 mg/kg/injection, schedule: Q01DX001 (ip), vehicle: saline

Measured: T/C

CCNC(=O)Oc1c(Cl)cc(S(=O)(=O)F)cc1Cl
inactive: dose: 12.5 mg/kg/injection, schedule: Q01DX009 (ip), vehicle: saline with Tween-80 90 % of control | dose: 12.5 mg/kg/injection, schedule: Q04DX002 (ip), vehicle: saline with Tween-80 93 % of control | [1] 103 % of control | dose: 25.0 mg/kg/injection, schedule: Q04DX002 (ip), vehicle: saline with Tween-80 101 % of control | dose: 50.0 mg/kg/injection, schedule: Q04DX002 (ip), vehicle: saline with Tween-80 96 % of control

Cc1cc(C(=O)O)c2c([nH]1)c(C)cc1nc3ccccc3c12
inactive: dose: 50.0 mg/kg/injection, schedule: Q01DX001 (ip), vehicle: carboxymethylcellulose (CMC) 101 % of control | [2] 101 % of control | [3] 108 % of control | [4] 95 % of control

O=c1[nH]c(SCc2cccc([N+](=O)[O-])c2)nc2nc[nH]c12
inactive: dose: 50.0 mg/kg/injection, schedule: Q01DX001 (ip), vehicle: Klucel (hydroxypropylcellulose) (HPC) 96 % of control | [5] 100 % of control | [6] 107 % of control

C1=C(c2ccccc2)S/C(=C/c2ccccc2)S1
inactive: [1] 96 % of control | [7] 96 % of control | dose: 50.0 mg/kg/injection, schedule: Q04DX003 (ip), vehicle: saline 88 % of control | [8] 93 % of control | [9] 94 % of control | [10] 87 % of control | [11] 88 % of control | dose: 400.0 mg/kg/injection, schedule: Q01DX001 (ip), vehicle: saline 88 % of control

O=C(Nc1cccc(F)c1)N(Cc1ccccc1)c1ccccc1
inactive: [9] 91 % of control | [12] 91 % of control | [13] 98 % of control

CCOC(=O)c1ccc(S(=O)(=O)NCCCc2c(C)nc(N)[nH]c2=O)cc1
inactive: dose: 12.5 mg/kg/injection, schedule: Q01DX001 (ip), vehicle: saline with Tween-80 90 % of control | dose: 25.0 mg/kg/injection, schedule: Q01DX001 (ip), vehicle: saline with Tween-80 103 % of control | dose: 50.0 mg/kg/injection, schedule: Q01DX001 (ip), vehicle: saline with Tween-80 90 % of control

O=C(O)CC1(CC(=O)O)CCCCC1
inactive: [9] 90 % of control | [12] 95 % of control | [13] 92 % of control

COc1ccc(/C=C(\S)C(=O)O)cc1
inactive: [8] 96 % of control | [11] 118 % of control | dose: 1040.0 mg/kg/injection, schedule: Q01DX001 (ip), vehicle: saline 111 % of control

O=C1OCCN1C(=O)c1ccc([N+](=O)[O-])cc1
inactive: [5] 97 % of control | dose: 100.0 mg/kg/injection, schedule: Q01DX009 (ip), vehicle: Klucel (hydroxypropylcellulose) (HPC) 89 % of control | dose: 100.0 mg/kg/injection, schedule: Q04DX003 (ip), vehicle: Klucel (hydroxypropylcellulose) (HPC) 97 % of control | [6] 94 % of control | dose: 200.0 mg/kg/injection, schedule: Q01DX009 (ip), vehicle: Klucel (hydroxypropylcellulose) (HPC) 94 % of control | dose: 200.0 mg/kg/injection, schedule: Q04DX003 (ip), vehicle: Klucel (hydroxypropylcellulose) (HPC) 98 % of control | dose: 400.0 mg/kg/injection, schedule: Q01DX001 (ip), vehicle: Klucel (hydroxypropylcellulose) (HPC) 97 % of control | dose: 400.0 mg/kg/injection, schedule: Q01DX009 (ip), vehicle: Klucel (hydroxypropylcellulose) (HPC) 88 % of control | dose: 400.0 mg/kg/injection, schedule: Q04DX003 (ip), vehicle: Klucel (hydroxypropylcellulose) (HPC) 98 % of control

CCOC(=O)C1=C(OCOC)CCC(C(C)(C)C)C1 (configuration not stated)
inactive: [5] 92 % of control | [6] 98 % of control

CC1(C)CC(=O)C(c2ccc([N+](=O)[O-])cc2)=C(O)c2ccccc21
inactive: [7] 91 % of control | [9] 94 % of control | [12] 91 % of control

OCCC1=CCCCC1
inactive: [14] 97 % of control | [15] 95 % of control | [16] 93 % of control

CCCCCCCCCCCCCCCCCC(=O)Oc1cccc2cccnc12
inactive: dose: 100.0 mg/kg/injection, schedule: Q04DX002 (ip), vehicle: saline with Tween-80 93 % of control | dose: 200.0 mg/kg/injection, schedule: Q04DX002 (ip), vehicle: saline with Tween-80 93 % of control | dose: 400.0 mg/kg/injection, schedule: Q04DX002 (ip), vehicle: saline with Tween-80 106 % of control

COCCNP(=O)(OC)OC
inactive: [17] 100 % of control | dose: 50.0 mg/kg/injection, schedule: Q04DX003 (ip), vehicle: acetone 96 % of control | dose: 100.0 mg/kg/injection, schedule: Q01DX001 (ip), vehicle: acetone 110 % of control | [18] 108 % of control | dose: 100.0 mg/kg/injection, schedule: Q04DX003 (ip), vehicle: acetone 101 % of control | dose: 200.0 mg/kg/injection, schedule: Q01DX001 (ip), vehicle: acetone 102 % of control | dose: 200.0 mg/kg/injection, schedule: Q01DX009 (ip), vehicle: acetone 97 % of control | dose: 200.0 mg/kg/injection, schedule: Q04DX003 (ip), vehicle: acetone 111 % of control

CN=C(N)c1ccc(N=C(N)c2ccc(N=C(N)c3ccc(NC(=O)c4ccc(C(=O)Nc5ccc(C(N)=Nc6ccc(C(N)=Nc7ccc(C(N)=NC)cc7)cc6)cc5)cc4)cc3)cc2)cc1
inactive: dose: 6.25 mg/kg/injection, schedule: Q01DX Z (ip), vehicle: water 110 % of control | dose: 12.5 mg/kg/injection, schedule: Q01DX Z (ip), vehicle: water 120 % of control | dose: 50.0 mg/kg/injection, schedule: Q01DX Z (ip), vehicle: water 121 % of control

c1nc([N+]23CCC(CC2)CC3)c2[nH]cnc2n1
inactive: dose: 5.0 mg/kg/injection, schedule: Q01DX001 (ip), vehicle: saline 111 % of control | dose: 10.0 mg/kg/injection, schedule: Q01DX001 (ip), vehicle: saline 103 % of control | dose: 20.0 mg/kg/injection, schedule: Q01DX001 (ip), vehicle: saline 113 % of control | dose: 40.0 mg/kg/injection, schedule: Q01DX001 (ip), vehicle: saline 97 % of control | dose: 80.0 mg/kg/injection, schedule: Q01DX001 (ip), vehicle: saline 108 % of control

O=Cc1cc([N+](=O)[O-])ccc1Cl
inactive: [7] 101 % of control | [9] 100 % of control | [14] 96 % of control | [12] 95 % of control | [15] 97 % of control

O=C(O)COc1cc(Cl)c(Cl)cc1Cl (tested in a mixture with another compound)
inactive: [19] 110 % of control | [20] 93 % of control

COc1ncnc2c1ccn2C1OC(CO)C(O)C1O (configuration not stated)
inactive: [19] 86 % of control | [20] 101 % of control | [8] 101 % of control

[CH3][Sb]([CH3])([CH3])([O]C(=O)CF)[O]C(=O)CF
inactive: dose: 1.25 mg/kg/injection, schedule: Q04DX003 (ip), vehicle: saline with Tween-80 91 % of control | dose: 2.5 mg/kg/injection, schedule: Q04DX003 (ip), vehicle: saline with Tween-80 96 % of control | dose: 5.0 mg/kg/injection, schedule: Q04DX003 (ip), vehicle: saline with Tween-80 110 % of control | dose: 5.0 mg/kg/injection, schedule: Q04DX003 (ip), vehicle: saline 107 % of control

O=C(OC1c2cccc3cccc(c23)C1O)c1ccccc1 (configuration not stated)
inactive: dose: 100.0 mg/kg/injection, schedule: Q04DX003 (ip), vehicle: other 95 % of control | dose: 200.0 mg/kg/injection, schedule: Q04DX003 (ip), vehicle: other 93 % of control | dose: 400.0 mg/kg/injection, schedule: Q04DX003 (ip), vehicle: other 90 % of control

O=S1(=O)OCc2ccccc21
inactive: [17] 106 % of control | [2] 100 % of control | [18] 97 % of control | [10] 100 % of control | [3] 100 % of control | dose: 200.0 mg/kg/injection, schedule: Q04DX003 (ip), vehicle: saline 94 % of control

CC(C)(C)COC(=O)c1ccccc1
inactive: [2] 102 % of control | [3] 91 % of control | [4] 91 % of control

Cc1cc2nc(CC(O)(C(F)(F)F)C(F)(F)F)oc2cc1C
inactive: [14] 96 % of control | [15] 102 % of control | [16] 101 % of control
